The results in this text go back to ChEMBL document CHEMBL1139813, “Synthesis and biological evaluation of amino-pyridines as androgen receptor antagonists for stimulating hair growth and reducing sebum production” (Bioorg Med Chem Lett, 2007).

For orientation: IC50 means the point on the concentration scale where inhibition reaches its midpoint. As a reminder, the clearance is a measure of how efficiently the substance is removed, as volume per time.

The source made the active and inactive calls. The rule behind the calls is not given here. Bounds are passed on as bounds.

Data set [1] addresses T1, Androgen receptor (Homo sapiens, UniProt P10275).
T1 sequence (P10275 whole entry): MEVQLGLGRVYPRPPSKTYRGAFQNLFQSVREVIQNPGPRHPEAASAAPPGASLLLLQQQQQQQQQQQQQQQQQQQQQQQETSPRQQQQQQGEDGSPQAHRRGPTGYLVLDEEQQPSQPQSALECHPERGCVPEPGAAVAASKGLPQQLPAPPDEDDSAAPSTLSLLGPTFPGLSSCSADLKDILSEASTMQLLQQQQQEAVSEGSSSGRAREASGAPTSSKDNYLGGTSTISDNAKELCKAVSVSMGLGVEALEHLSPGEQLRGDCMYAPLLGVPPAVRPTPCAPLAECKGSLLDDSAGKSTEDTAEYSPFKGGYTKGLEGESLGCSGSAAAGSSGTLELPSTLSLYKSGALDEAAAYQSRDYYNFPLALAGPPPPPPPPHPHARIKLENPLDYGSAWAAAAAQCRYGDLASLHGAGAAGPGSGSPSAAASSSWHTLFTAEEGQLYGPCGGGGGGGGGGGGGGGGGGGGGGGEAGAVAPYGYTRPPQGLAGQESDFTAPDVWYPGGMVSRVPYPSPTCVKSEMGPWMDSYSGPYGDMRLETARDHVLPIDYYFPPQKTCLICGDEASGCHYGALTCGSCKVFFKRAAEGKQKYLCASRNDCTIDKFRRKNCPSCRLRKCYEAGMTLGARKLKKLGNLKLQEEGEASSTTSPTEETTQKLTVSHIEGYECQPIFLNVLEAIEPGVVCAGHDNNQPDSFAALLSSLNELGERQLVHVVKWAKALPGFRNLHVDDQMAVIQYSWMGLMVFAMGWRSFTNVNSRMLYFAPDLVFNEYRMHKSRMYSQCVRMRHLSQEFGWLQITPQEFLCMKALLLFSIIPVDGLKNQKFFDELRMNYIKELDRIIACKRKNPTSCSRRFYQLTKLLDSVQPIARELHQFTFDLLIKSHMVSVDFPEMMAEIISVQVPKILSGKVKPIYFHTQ
In words: biochemical.
Description: Displacement of [3H]dihydrotestosterone from human androgen receptor expressed in Sf9 cells

The target in data set [2] is T1, Androgen receptor.
Description: Antagonist activity at human androgen receptor expressed in MDA-MB-453 cells
Data set [3] deals with Syrian golden hamster. In words: Reduction in sebum production in syrian hamster ear model at 3% concentration administered for 5 days, bid per week for 2 weeks. The data set is classed as functional, Mesocricetus auratus. More on the design: scale not given: the % may be the effect or the level left.
Data set [4] concerns Mus musculus. Description: Stimulation of hair growth in C3H/HeN mouse at 3% concentration administered for 5 days, bid per week for 4 weeks. The data set is classed as functional, organism-based.
Data set [5] can be described thus: Clearance in Beagle dog plasma at 0.5 mg/kg, iv. The data set is classed as ADME, organism-based, Canis lupus familiaris. The arrangement: dose 0.5 mg/kg, route intravenous.

As to `CCCN(CCC)c1cc(C(F)(F)F)c(C#N)cn1`, the results for the IC50 in data set [1] and in data set [2] were 78 nM and above 1000 nM, respectively.
For `N#Cc1cnc(N2CCC3CCCCC3C2)cc1C(F)(F)F` (stereo not drawn), the half-maximal inhibitory concentration (IC50) came out at 169 nM in data set [1] and 260 nM in data set [2].
`C[C@@H](Nc1cc(C(F)(F)F)c(C#N)cn1)c1ccccc1` came in with a 50% inhibitory concentration (IC50) in data set [1] of 4930 nM.
Compound `CC(c1ccccc1)N(C)c1cc(C(F)(F)F)c(C#N)cn1` (stereo not drawn) had an IC50 in data set [2] of 229 nM.
The compound `CC1(C)C(=O)N(c2ccc(C#N)c(C(F)(F)F)c2)C(=O)N1CCCCO` [RU-58841] gave an Activity in data set [3] of 92%.
As to `C[C@@H](c1ccccc1)N(C)c1cc(C(F)(F)F)c(C#N)cn1`, the IC50 in data set [1] was 1700 nM.
With `CC1CCN(c2cc(C(F)(F)F)c(C#N)cn2)CC1`, the IC50 in data set [1] was determined as 73 nM; in data set [2], 136 nM.
On to `C[C@H](c1ccccc1)N(C)c1cc(C(F)(F)F)c(C#N)cn1`, for which, in data set [3], the Activity worked out at 83%. Moreover, the result in data set [4] was Active. This compound also gave an IC50 in data set [2] of 45 nM. The clearance in data set [5] was determined as 40 mL/min/kg.
For the compound `CCC(C)N(C)c1cc(C(F)(F)F)c(C#N)cn1` (stereo not drawn), the results for the IC50 in data set [1] and in data set [2] were 7 nM and above 1000 nM, respectively.
In the same order, the values of `N#Cc1cnc(N2CCCCC2)cc1C(F)(F)F` are 209 nM and 422 nM.
